The source of these data is patent publication US20230312542A1, “HYDROXYPYRROLIDINE DERIVATIVE AND MEDICINAL APPLICATION THEREOF” (MITSUBISHI TANABE PHARMA CORPORATION, priority 2020, published 2023).

The structures appear in SMILES notation.

For the assay, the target named is VHL (co-expressed with Elongin B and Elongin C) (Homo sapiens (Human), UniProt P40337). Kind of assay: Measurement of intermolecular interactions using surface plasmon resonance (Biacore T200), Kd value for VHL. Type of assay: binding. The settings on record: SPR, immobilized VHL, 25° C.; read-out: Kd. The source says: As the device, Biacore T200 (manufactured by GE Healthcare) was used. VHL was obtained by co-expressing Elongin B and Elongin C with a Twin-Strep-tag added to the N-terminus. As the sensor chip, Sensor chip CM5 (manufactured by GE Healthcare) was used. First, Strep-Tactin XT (manufactured by GE Healthcare) was immobilized on the sensor chip by amine coupling. Thereafter, VHL was immobilized using the affinity of Strep-Tactin XT and Twin-Strep-tag, and VHL was further immobilized on the sensor chip by amine coupling.
VHL (co-expressed with Elongin B and Elongin C), sequence (P40337 whole entry, looked up): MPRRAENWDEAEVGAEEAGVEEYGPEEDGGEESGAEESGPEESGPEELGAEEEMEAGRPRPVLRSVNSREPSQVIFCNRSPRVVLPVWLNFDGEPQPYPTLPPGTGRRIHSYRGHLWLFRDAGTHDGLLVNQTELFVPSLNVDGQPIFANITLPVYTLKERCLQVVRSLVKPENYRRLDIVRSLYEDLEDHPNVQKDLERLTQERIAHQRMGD
VHL (co-expressed with Elongin B and Elongin C), sequence (Q15370 whole entry partner, looked up): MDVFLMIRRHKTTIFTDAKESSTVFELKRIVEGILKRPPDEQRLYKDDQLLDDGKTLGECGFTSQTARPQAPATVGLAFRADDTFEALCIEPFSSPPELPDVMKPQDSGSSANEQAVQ
VHL (co-expressed with Elongin B and Elongin C), sequence (Q15369 whole entry partner, looked up): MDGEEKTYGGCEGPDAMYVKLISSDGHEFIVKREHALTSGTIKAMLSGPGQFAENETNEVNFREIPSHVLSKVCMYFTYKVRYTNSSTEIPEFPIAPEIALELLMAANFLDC
As the running buffer, a mixed solution of 20 mM HEPES pH 7.5, 150 mM NaCl, 1 mM TCEP, 0.005% Tween 20, and 2% DMSO was used. […] The Contact time and the Dissociation time were determined according to the properties of the compounds. For many compounds, 60 seconds and 120 seconds were respectively used.
Take `CC(=O)N[C@H](C(=O)N1C[C@H](O)C[C@H]1c1nc(C(=O)N(C)Cc2ccncc2)c[nH]1)C(C)(C)C` [Example 49, 2-[(2S,4R)-1-[(2S)-2-acetamido-3,3-dimethylbutanoyl]-4-hydroxypyrrolidin-2-yl]-N-methyl-N-(pyridin-4-ylmethyl)-1H-imidazole-4-carboxamide]: the Kd lay in the range of 1 to 10 µM.
Under `COc1cccc(Cc2cnc([C@@H]3C[C@@H](O)CN3C(=O)C(c3cc(OC)no3)C(C)C)[nH]2)c1` (stereo partly drawn) [Example 63, 1-[(2S,4R)-4-hydroxy-2-[5-[(3-methoxyphenyl)methyl]-1H-imidazol-2-yl]pyrrolidin-1-yl]-2-(3-methoxy-1,2-oxazol-5-yl)-3-methylbutan-1-one] stands 1 to 10 µM; under `COc1cc(C(C(=O)N2C[C@H](O)C[C@H]2c2ncc(Cc3ccc(C(F)(F)F)cc3)[nH]2)C(C)C)on1` (stereo partly drawn) [Example 79, 1-[(2S,4R)-4-hydroxy-2-[5-[[4-(trifluoromethyl)phenyl]methyl]-1H-imidazol-2-yl]pyrrolidin-1-yl]-2-(3-methoxy-1,2-oxazol-5-yl)-3-methylbutan-1-one], 1 to 10 µM.
For `COc1cccc(-c2cnc([C@@H]3C[C@@H](O)CN3C(=O)C(c3cc(OC)no3)C(C)C)[nH]2)c1` (stereo partly drawn) [Example 61, 1-[(2S,4R)-4-hydroxy-2-[5-(3-methoxyphenyl)-1H-imidazol-2-yl]pyrrolidin-1-yl]-2-(3-methoxy-1,2-oxazol-5-yl)-3-methylbutan-1-one] the value was 1 to 10 µM; for `CCCc1nc(C(C(=O)N2C[C@H](O)C[C@H]2c2ncc[nH]2)C(C)C)no1` (stereo partly drawn) [Example 161, 1-[(2S,4R)-4-hydroxy-2-(1H-imidazol-2-yl)pyrrolidin-1-yl]-3-methyl-2-(5-propyl-1,2,4-oxadiazol-3-yl)butan-1-one], 10 to 50 µM.
For `CC(=O)N[C@H](C(=O)N1C[C@H](O)C[C@H]1c1nc(C(=O)N(C)Cc2ccc(C(F)(F)F)cc2)c[nH]1)C(C)(C)C` [Example 22, 2-[(2S,4R)-1-[(2S)-2-acetamido-3,3-dimethylbutanoyl]-4-hydroxypyrrolidin-2-yl]-N-methyl-N-[[4-(trifluoromethyl)phenyl]methyl]-1H-imidazole-4-carboxamide] the value was 1 to 10 µM; for `CC(=O)N[C@H](C(=O)N1C[C@H](O)C[C@H]1c1nc(C(=O)N(C)Cc2ccccn2)c[nH]1)C(C)(C)C` [Example 48, 2-[(2S,4R)-1-[(2S)-2-acetamido-3,3-dimethylbutanoyl]-4-hydroxypyrrolidin-2-yl]-N-methyl-N-(pyridin-2-ylmethyl)-1H-imidazole-4-carboxamide], 1 to 10 µM; for `CC(=O)N[C@H](C(=O)N1C[C@H](O)C[C@H]1c1nc(C(=O)N(C)Cc2ccccc2C(F)(F)F)c[nH]1)C(C)(C)C` [Example 20, 2-[(2S,4R)-1-[(2S)-2-acetamido-3,3-dimethylbutanoyl]-4-hydroxypyrrolidin-2-yl]-N-methyl-N-[[2-(trifluoromethyl)phenyl]methyl]-1H-imidazole-4-carboxamide], 1 to 10 µM.
In the case of `CC(=O)N[C@H](C(=O)N1C[C@H](O)C[C@H]1c1nc(C(=O)N(C)Cc2ccc(Cl)cc2)c[nH]1)C(C)(C)C` [Example 16, 2-[(2S,4R)-1-[(2S)-2-acetamido-3,3-dimethylbutanoyl]-4-hydroxypyrrolidin-2-yl)-N-[(4-chlorophenyl)methyl]-N-methyl-1H-imidazole-4-carboxamide], the Kd was 1 to 10 µM.
Under `CC(=O)N[C@H](C(=O)N1C[C@H](O)C[C@H]1c1nc(C(=O)N(C)Cc2ccc(-c3scnc3C)cc2)c[nH]1)C(C)(C)C` [Example 35, 2-[(2S,4R)-1-[(2S)-2-acetamido-3,3-dimethylbutanoyl]-4-hydroxypyrrolidin-2-yl]-N-methyl-N-[[4-(4-methyl-1,3-thiazol-5-yl)phenyl]methyl]-1H-imidazole-4-carboxamide] stands 1 to 10 µM; under `Cc1cc(-c2cnn(C(C(=O)N3C[C@H](O)C[C@H]3c3ncc[nH]3)C(C)C)c2)on1` (stereo partly drawn) [Example 160, 1-[(2S,4R)-4-hydroxy-2-(1H-imidazol-2-yl)pyrrolidin-1-yl]-3-methyl-2-[4-(3-methylisoxazol-5-yl)pyrazol-1-yl]butan-1-one], 10 to 50 µM; under `CC(=O)N[C@H](C(=O)N1C[C@H](O)C[C@H]1c1nc(C(=O)N(C)Cc2ccccc2Cl)c[nH]1)C(C)(C)C` [Example 14, 2-[(2S,4R)-1-[(2S)-2-acetamido-3,3-dimethylbutanoyl]-4-hydroxypyrrolidin-2-yl]-N-[(2-chlorophenyl)methyl]-N-methyl-1H-imidazole-4-carboxamide], 1 to 10 µM.
Under `COc1cccc(CN(C)C(=O)c2c[nH]c([C@@H]3C[C@@H](O)CN3C(=O)[C@@H](NC(C)=O)C(C)(C)C)n2)c1` [Example 24, 2-[(2S,4R)-1-[(2S)-2-acetamido-3,3-dimethylbutanoyl]-4-hydroxypyrrolidin-2-yl]-N-[(3-methoxyphenyl)methyl]-N-methyl-1H-imidazole-4-carboxamide] stands 1 to 10 µM.
As to `CC(=O)N[C@H](C(=O)N1C[C@H](O)C[C@H]1c1ncc(Cc2cccc(Br)c2)[nH]1)C(C)(C)C` [Example 90, N-[(2S)-1-[(2S,4R)-2-[5-[(3-bromophenyl)methyl]-1H-imidazol-2-yl]-4-hydroxypyrrolidin-1-yl]-3,3-dimethyl-1-oxobutan-2-yl]acetamide], the Kd is 1 to 10 µM.
On to `COc1ccc(Cc2cnc([C@@H]3C[C@@H](O)CN3C(=O)C(c3cc(OC)no3)C(C)C)[nH]2)cc1` (stereo partly drawn) [Example 62, 1-[(2S,4R)-4-hydroxy-2-[5-[(4-methoxyphenyl)methyl]-1H-imidazol-2-yl]pyrrolidin-1-yl]-2-(3-methoxy-1,2-oxazol-5-yl)-3-methylbutan-1-one], for which the Kd fell in the range of 1 to 10 µM.
Under `COc1cc(C(C(=O)N2C[C@H](O)C[C@H]2c2nc(C(=O)N3CCC(Oc4ccccc4)CC3)c[nH]2)C(C)C)on1` (stereo partly drawn) [Example 1, 1-[(2S,4R)-4-hydroxy-2-[4-(4-phenoxypiperidine-1-carbonyl)-1H-imidazol-2-yl]pyrrolidin-1-yl]-2-(3-methoxy-1,2-oxazol-5-yl)-3-methylbutan-1-one] stands 1 to 10 µM; under `CNC(=O)c1nc([C@@H]2C[C@@H](O)CN2C(=O)C(c2cc(OC)no2)C(C)C)[nH]c1-c1ccc(OC)cc1` (stereo partly drawn) [Example 75, 2-[(2S,4R)-4-hydroxy-1-[2-(3-methoxy-1,2-oxazol-5-yl)-3-methylbutanoyl]pyrrolidin-2-yl]-5-(4-methoxyphenyl)-N-methyl-1H-imidazole-4-carboxamide], 1 to 10 µM.
Under `COc1ccc(-c2[nH]c([C@@H]3C[C@@H](O)CN3C(=O)C(c3cc(OC)no3)C(C)C)nc2C(F)(F)F)cc1` (stereo partly drawn) [Example 74, 1-[(2S,4R)-4-hydroxy-2-[5-(4-methoxyphenyl)-4-(trifluoromethyl)-1H-imidazol-2-yl]pyrrolidin-1-yl]-2-(3-methoxy-1,2-oxazol-5-yl)-3-methylbutan-1-one] stands 1 to 10 µM; under `COc1cc(C(C(=O)N2C[C@H](O)C[C@H]2c2nc(C(=O)N(C)Cc3ccc(-c4ccnc(C)c4)cc3)c[nH]2)C(C)C)on1` (stereo partly drawn) [Example 153, 2-[(2S,4R)-4-hydroxy-1-[2-(3-methoxyisoxazol-5-yl)-3-methylbutanoyl]pyrrolidin-2-yl]-N-methyl-N-[[4-(2-methyl-4-pyridyl)phenyl]methyl]-1H-imidazole-4-carboxamide], less than 1 µM.
